From patent US20220323379A1, “P62 LIGAND COMPOUND AND ER-PHAGY-PROMOTING USE THEREOF” (PROTECH, INC., priority 2019, published 2022)

Biological target: T1, p62 (Homo sapiens, UniProt Q13501)
T1 construct: PCR amplification of a full-length human p62 cDNA fragment; expressed in transfected cells; unpurified lysate supernatant
Assay: In vitro p62 oligomerization assay
Assay type: biochemical
Conditions: 2 h; for p62 oligomerization: dipeptide 50 mM, FIG. 2B; for oligomerization and aggregation of p62: p62-ZZ ligands 1 mM, p62-myc/his cell lysate, FIG. 5B
Description: FIG. 2B illustrates the in vitro p62 oligomerization assay results in HEK293T cells cultured with Arg-Ala or Ala-Arg dipeptide (50 mM, 2 hours),
FIG. 5B illustrates the in vitro p62 oligomerization assay results in HEK293T cells incubated with the p62-ZZ ligands (1 mM, 2 h) illustrated in FIG. 5A,
HEK293 cells were transiently transfected with a plasmid encoding p62-myc/his fusion proteins (Reference Example 2), resuspended in a lysis buffer [50 mM Hepes (pH 7.4), 0.15 M KCl, 0.1% Nonidet P-40), 10% glycerol, and a mixture of protease inhibitors and phosphatase inhibitor (Abcam)] and lysed by 10 cycles of freezing and thawing, followed by centrifugation at 13,000×g for 20 min at 4° C. The protein concentration in the supernatant was determined using a BCA assay (Thermo Fisher Scientific). A total of 1 μg of protein was mixed with 50 mM of the Arg-Ala or Ala-Arg dipeptide (Anygen) or 1000 μM of p62-ZZ ligands in the presence of 100 μM bestatin (Enzo) at room temperature for 2 h. Next, a non-reducing 4×LDS sample buffer was added to each sample, heated at 95° C. for 10 min, and resolved using 4-20% gradient SDS-PAGE (Bio-Rad). Immunoblotting analysis was carried out to monitor the conversion of p62 monomers into oligomers or aggregates using an anti-myc antibody.

Molecule | p62 oligomerization | oligomerization and aggregation of p62
Arg-Ala | induced p62 oligomerization | –
Ala-Arg | did not induce p62 oligomerization | –
O=Cc1ccc(OCc2ccccc2)c(OCc2ccccc2)c1 [compound 1101, 3,4-bis(benzyloxy)benzaldehyde] | – | negative controls
COC(=O)CNC[C@@H](O)COc1ccc(OCc2ccccc2)c(OCc2ccccc2)c1 [YOK-G-1104, methyl (R)-(3-(3,4-bis(benzyloxy)phenoxy)-2-hydroxypropyl)glycinate] | – | negative controls
